In one test the target is 96 kinases. The test can be described thus: KinomeScan screen versus another 96 kinases. The format is binding.
The test system of test [1] is Akt phosphorylation in MDA-MB-468. The test can be described thus: Cellular inhibition of Akt phosphorylation. Conditions: Homo sapiens, MDA-MB-468, read-out: inhibition of Akt phosphorylation IC50. The class given is cell-based.
The next test deals with PI3Kβ D862Q (Homo sapiens, UniProt P42338, D862Q). The following applies: cited from earlier work.

We go through two compounds from publication PMC3688631 (ACS medicinal chemistry letters, 2013).

In general, IC50 refers to the midpoint of a concentration-inhibition curve.

Chain of PI3Kβ D862Q (P42338 whole entry D862Q): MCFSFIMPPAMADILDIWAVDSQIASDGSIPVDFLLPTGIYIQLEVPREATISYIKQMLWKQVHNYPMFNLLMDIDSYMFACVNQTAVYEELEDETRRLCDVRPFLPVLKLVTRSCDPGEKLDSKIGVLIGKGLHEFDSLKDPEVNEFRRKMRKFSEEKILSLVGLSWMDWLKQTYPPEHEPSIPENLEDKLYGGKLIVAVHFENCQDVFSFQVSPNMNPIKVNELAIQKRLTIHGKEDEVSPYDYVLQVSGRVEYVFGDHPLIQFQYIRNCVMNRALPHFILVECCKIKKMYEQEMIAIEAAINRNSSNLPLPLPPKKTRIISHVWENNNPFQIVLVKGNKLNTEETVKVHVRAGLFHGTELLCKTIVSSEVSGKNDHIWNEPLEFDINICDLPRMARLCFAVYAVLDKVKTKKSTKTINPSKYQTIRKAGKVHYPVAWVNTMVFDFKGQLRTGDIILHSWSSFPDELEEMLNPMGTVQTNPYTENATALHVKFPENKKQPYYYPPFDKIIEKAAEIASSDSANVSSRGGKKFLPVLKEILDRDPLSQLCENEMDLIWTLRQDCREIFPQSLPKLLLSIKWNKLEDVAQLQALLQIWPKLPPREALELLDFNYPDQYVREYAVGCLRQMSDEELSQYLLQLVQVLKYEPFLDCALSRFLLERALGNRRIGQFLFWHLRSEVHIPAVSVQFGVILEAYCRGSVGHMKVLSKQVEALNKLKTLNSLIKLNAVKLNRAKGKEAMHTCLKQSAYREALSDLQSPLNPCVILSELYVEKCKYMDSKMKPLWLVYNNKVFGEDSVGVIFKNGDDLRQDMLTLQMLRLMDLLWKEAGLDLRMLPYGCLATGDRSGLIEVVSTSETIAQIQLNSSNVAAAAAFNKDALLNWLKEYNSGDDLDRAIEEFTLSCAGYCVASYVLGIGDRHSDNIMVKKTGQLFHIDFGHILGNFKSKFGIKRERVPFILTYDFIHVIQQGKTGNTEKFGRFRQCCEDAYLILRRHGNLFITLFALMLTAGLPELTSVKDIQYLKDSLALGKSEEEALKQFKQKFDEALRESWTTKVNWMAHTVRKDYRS
Chain of PI3Kβ D862Q (P27986 whole entry partner): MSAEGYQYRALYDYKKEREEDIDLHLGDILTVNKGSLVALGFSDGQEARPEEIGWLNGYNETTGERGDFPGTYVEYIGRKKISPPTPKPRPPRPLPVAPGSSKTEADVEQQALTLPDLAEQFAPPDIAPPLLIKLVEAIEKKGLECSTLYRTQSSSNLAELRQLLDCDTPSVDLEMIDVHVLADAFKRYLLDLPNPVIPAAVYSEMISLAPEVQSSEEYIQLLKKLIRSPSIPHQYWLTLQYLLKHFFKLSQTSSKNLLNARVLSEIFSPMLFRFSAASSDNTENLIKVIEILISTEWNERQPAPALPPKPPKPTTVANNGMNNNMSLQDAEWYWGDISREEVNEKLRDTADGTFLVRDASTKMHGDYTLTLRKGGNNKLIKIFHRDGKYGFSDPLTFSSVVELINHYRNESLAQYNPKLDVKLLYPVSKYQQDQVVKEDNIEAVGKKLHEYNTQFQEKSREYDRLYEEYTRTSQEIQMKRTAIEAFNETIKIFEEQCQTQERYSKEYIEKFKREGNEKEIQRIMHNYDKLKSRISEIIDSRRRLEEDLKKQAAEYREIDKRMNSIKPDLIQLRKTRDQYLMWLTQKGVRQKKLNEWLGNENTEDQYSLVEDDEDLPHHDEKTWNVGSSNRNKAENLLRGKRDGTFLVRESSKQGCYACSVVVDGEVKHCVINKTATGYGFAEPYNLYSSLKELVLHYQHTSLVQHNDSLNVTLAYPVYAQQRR

Turning to `N[C@@H](Cc1ccccc1)C(=O)N1CCN(c2nc(N3CCOCC3)nc(-n3c(C(F)F)nc4ccccc43)n2)CC1` [Compound 21], on 96 kinases, the “KinomeScan binding affinity versus another 96 kinases” value was “only the class II PI3K PI3KC2β showed binding affinity comparable to that seen for PI3Kβ”. Also, the IC50 in test [1] was under 10 nM.
`Cc1cc(C(C)Nc2ccccc2)c2nc(N3CCOCC3)cc(=O)n2c1` (stereo not drawn) [TGX221]: the “effect of mutation D862Q in PI3Kβ on inhibition” value on PI3Kβ D862Q is recorded as “unaffected”.
